# Data from US10105357B2, “Indication of antibiotic drugs for preparation of cancer inhibition pharmaceutical composition” (LAUNX BIOMEDICAL CO., LTD., priority 2014, dated 2018).
# Read-outs that look alike come from different tables or passages of the source.
# Tests used:
# [1] = system: MCF7 (Mammary Gland, Adenocarcinoma); experiment: Cell viability analysis, breast cancer MCF7; type: cell-based, human; conditions: Homo sapiens
# [2] = system: HepG2 (Hepatocellular Carcinoma); experiment: Cell viability analysis, hepatic cancer HepG2; type: cell-based, human; conditions: Homo sapiens
# [3] = system: A375 (Amelanotic Melanoma); experiment: Cell viability analysis, skin cancer A375; type: cell-based, human; conditions: Homo sapiens
# [4] = system: HL-60 (Acute Promyelocytic Leukemia); experiment: Cell viability analysis, leukemia HL-60; type: cell-based, human; conditions: Homo sapiens
# [5] = system: AGS (Gastric Adenocarcinoma); experiment: Cell viability analysis, gastric cancer AGS; type: cell-based, human; conditions: Homo sapiens
# [6] = system: HeLa (Cervix Adenocarcinoma); experiment: Cell viability analysis, cervical cancer HeLa; type: cell-based, human; conditions: Homo sapiens, HeLa
# [7] = system: PC3 (p53−) (Prostate Adenocarcinoma); experiment: Cell viability analysis, prostate cancer PC3; type: cell-based, human; conditions: Homo sapiens
# [8] = system: HCT116 (p53+) (Colorectal Carcinoma); experiment: cells; conditions: Homo sapiens, HCT-116, 72 h, read-out: cell viability (survival rate), HCT116
# [9] = system: A549 (Lung Adenocarcinoma); experiment: Cell viability analysis, lung cancer A549; type: cell-based, human; conditions: Homo sapiens
# [10] = system: MKN-45 (Gastric Adenocarcinoma); experiment: Cell viability analysis, gastric cancer MKN-45; type: cell-based, human; conditions: Homo sapiens
# [11] = system: LoVo (Colorectal Adenocarcinoma); experiment: Cell viability analysis, colon cancer LoVo; type: cell-based, human; conditions: Homo sapiens, LoVo
# [12] = system: TSGH-8301 (Urinary Bladder Carcinoma); experiment: Cell viability analysis, bladder cancer TSGH-8301; type: cell-based, human; conditions: Homo sapiens
# [13] = system: HI650 (Lung Adenocarcinoma); experiment: Cell viability analysis, lung cancer HI650; type: cell-based, human; conditions: Homo sapiens
# [14] = MCF7, 72 h, read-out: cell viability (survival rate), MCF7
# [15] = HepG2, 72 h, read-out: cell viability (survival rate), HepG2
# [16] = A-375, 72 h, read-out: cell viability (survival rate), A375
# [17] = HL-60, 72 h, read-out: cell viability (survival rate), HL-60
# [18] = 72 h, read-out: cell viability (survival rate), AGS
# [19] = 72 h, read-out: cell viability (survival rate), HeLa
# [20] = 72 h, read-out: cell viability (survival rate), PC3
# [21] = A549, 72 h, read-out: cell viability (survival rate), A549
# [22] = MKN-45, 72 h, read-out: cell viability (survival rate), MKN-45
# [23] = 72 h, read-out: cell viability (survival rate), LoVo
# [24] = 72 h, read-out: cell viability (survival rate), TSGH
# [25] = NCI-H1650, 72 h, read-out: cell viability (survival rate), H1650
# [26] = MCF7, 72 h, read-out: cell viability (survival rate), MCF7, drug 10 μM, 72 hours, WST-1, OD450 nm
# [27] = HepG2, 72 h, read-out: cell viability (survival rate), HepG2, drug 10 μM, 72 hours, WST-1, OD450 nm
# [28] = A-375, 72 h, read-out: cell viability (survival rate), A375, drug 10 μM, 72 hours, WST-1, OD450 nm
# [29] = HL-60, 72 h, read-out: cell viability (survival rate), HL-60, drug 10 μM, 72 hours, WST-1, OD450 nm
# [30] = 72 h, read-out: cell viability (survival rate), AGS, drug 10 μM, 72 hours, WST-1, OD450 nm
# [31] = 72 h, read-out: cell viability (survival rate), HeLa, drug 10 μM, 72 hours, WST-1, OD450 nm
# [32] = 72 h, read-out: cell viability (survival rate), PC3, drug 10 μM, 72 hours, WST-1, OD450 nm
# [33] = A549, 72 h, read-out: cell viability (survival rate), A549, drug 10 μM, 72 hours, WST-1, OD450 nm
# [34] = MKN-45, 72 h, read-out: cell viability (survival rate), MKN-45, drug 10 μM, 72 hours, WST-1, OD450 nm
# [35] = 72 h, read-out: cell viability (survival rate), LoVo, drug 10 μM, 72 hours, WST-1, OD450 nm
# [36] = 72 h, read-out: cell viability (survival rate), TSGH, drug 10 μM, 72 hours, WST-1, OD450 nm
# [37] = NCI-H1650, 72 h, read-out: cell viability (survival rate), H1650, drug 10 μM, 72 hours, WST-1, OD450 nm
structure (smiles),measurement,setting,value
CCCCCCCCCCCCCCCC[n+]1ccccc1 [Cetylpyridinium Chloride],viability at 10 µM,[1]; [14],40.9%
same,viability at 10 µM,[2]; [15],60.9%
same,viability at 10 µM,[3]; [16],35.6%
same,viability at 10 µM,[4]; [17],30.8%
same,viability at 10 µM,[5]; [18],33.4%
same,viability at 10 µM,[6]; [19],37.1%
same,viability at 10 µM,[7]; [20],37.1%
same,viability at 10 µM,[8],33.6%
same,viability at 10 µM,[9]; [21],29.2%
same,viability at 10 µM,[10]; [22],47.4%
same,viability at 10 µM,[11]; [23],50.7%
same,viability at 10 µM,[12]; [24],37.2%
same,viability at 10 µM,[13]; [25],48.7%
C[N+](C)(C)CCO.[Cl-] [Choline Chloride],viability at 10 µM,[1]; [14],108%
same,viability at 10 µM,[2]; [15],103%
same,viability at 10 µM,[3]; [16],132%
same,viability at 10 µM,[4]; [17],91.1%
same,viability at 10 µM,[5]; [18],97.1%
same,viability at 10 µM,[6]; [19],103%
same,viability at 10 µM,[7]; [20],106%
same,viability at 10 µM,[8],104%
same,viability at 10 µM,[9]; [21],96%
same,viability at 10 µM,[10]; [22],99.3%
same,viability at 10 µM,[11]; [23],76.7%
same,viability at 10 µM,[12]; [24],129%
same,viability at 10 µM,[13]; [25],90.2%
C[C@@H]1CCC[C@H](C)N1NC(=O)c1ccc(Cl)c(S(N)(=O)=O)c1 [Clopamide],viability at 10 µM,[1]; [26],33.4%
same,viability at 10 µM,[2]; [27],92.8%
same,viability at 10 µM,[3]; [28],63.1%
same,viability at 10 µM,[4]; [29],102%
same,viability at 10 µM,[5]; [30],50.3%
same,viability at 10 µM,[6]; [31],87.1%
same,viability at 10 µM,[7]; [32],40.3%
same,viability at 10 µM,[8],102%
same,viability at 10 µM,[9]; [33],32.4%
same,viability at 10 µM,[10]; [34],89.4%
same,viability at 10 µM,[11]; [35],54.3%
same,viability at 10 µM,[12]; [36],59%
same,viability at 10 µM,[13]; [37],54%
COc1cc(/C=C/C(=O)CC(=O)/C=C/c2ccc(O)c(OC)c2)ccc1O [Curcumin],viability at 10 µM,[1]; [26],61.8%
same,viability at 10 µM,[2]; [27],98.3%
same,viability at 10 µM,[3]; [28],104%
same,viability at 10 µM,[4]; [29],111%
same,viability at 10 µM,[5]; [30],72.2%
same,viability at 10 µM,[6]; [31],66.2%
same,viability at 10 µM,[7]; [32],77.9%
same,viability at 10 µM,[8],93.6%
same,viability at 10 µM,[9]; [33],105%
same,viability at 10 µM,[10]; [34],46.4%
same,viability at 10 µM,[11]; [35],80%
same,viability at 10 µM,[12]; [36],95.4%
same,viability at 10 µM,[13]; [37],74.7%
COC(=O)C1=CO[C@@H](O[C@@H]2O[C@H](CO)[C@@H](O)[C@H](O)[C@H]2O)[C@@H]2C(CO)=CC[C@H]12 [Geniposide],viability at 10 µM,"[1]; MCF7, drug 10 μM, 72 hours, WST-1, OD450 nm, read-out: cell viability (survival rate), MCF7",73.8%
same,viability at 10 µM,"[2]; HepG2, drug 10 μM, 72 hours, WST-1, OD450 nm, read-out: cell viability (survival rate), HepG2",88.6%
same,viability at 10 µM,"[3]; A-375, drug 10 μM, 72 hours, WST-1, OD450 nm, read-out: cell viability (survival rate), A375",73.4%
same,viability at 10 µM,"[4]; HL-60, drug 10 μM, 72 hours, WST-1, OD450 nm, read-out: cell viability (survival rate), HL-60",120%
same,viability at 10 µM,"[5]; drug 10 μM, 72 hours, WST-1, OD450 nm, read-out: cell viability (survival rate), AGS",54.2%
same,viability at 10 µM,"[6]; drug 10 μM, 72 hours, WST-1, OD450 nm, read-out: cell viability (survival rate), HeLa",81%
same,viability at 10 µM,"[7]; drug 10 μM, 72 hours, WST-1, OD450 nm, read-out: cell viability (survival rate), PC3",65.5%
same,viability at 10 µM,[8],73.9%
same,viability at 10 µM,"[9]; A549, drug 10 μM, 72 hours, WST-1, OD450 nm, read-out: cell viability (survival rate), A549",63.7%
same,viability at 10 µM,"[10]; MKN-45, drug 10 μM, 72 hours, WST-1, OD450 nm, read-out: cell viability (survival rate), MKN-45",45.6%
same,viability at 10 µM,"[11]; drug 10 μM, 72 hours, WST-1, OD450 nm, read-out: cell viability (survival rate), LoVo",74.1%
same,viability at 10 µM,"[12]; drug 10 μM, 72 hours, WST-1, OD450 nm, read-out: cell viability (survival rate), TSGH",53.1%
same,viability at 10 µM,"[13]; NCI-H1650, drug 10 μM, 72 hours, WST-1, OD450 nm, read-out: cell viability (survival rate), H1650",71.2%
O[C@@H]1CO[C@H]2[C@@H]1OC[C@@H]2O [Isosorbide],viability at 10 µM,[1]; [26],78.6%
same,viability at 10 µM,[2]; [27],90.1%
same,viability at 10 µM,[3]; [28],53.5%
same,viability at 10 µM,[4]; [29],125%
same,viability at 10 µM,[5]; [30],69%
same,viability at 10 µM,[6]; [31],72.8%
same,viability at 10 µM,[7]; [32],94.3%
same,viability at 10 µM,[8],55.1%
same,viability at 10 µM,[9]; [33],60.7%
same,viability at 10 µM,[10]; [34],93.1%
same,viability at 10 µM,[11]; [35],81.8%
same,viability at 10 µM,[12]; [36],77.5%
same,viability at 10 µM,[13]; [37],73.3%
